Patent publication US20250057799A1, “Anti-Inflammatory Methods with Compositions Comprising Site-Specific Isotopically-Modified Fatty Acids” (BioJiva LLC, priority 2021, published 2025)
Entries after “also recorded” stand apart in the source; their conditions may differ.

Tested on: LPS-inflicted lung inflammation
Experiment: LPS-inflicted lung inflammation model in mice (lung morphometry)
Format: in vivo
Settings: for interalveolar septa thickness (result in words) / alveolar lumen area (result in words): 6-week dietary course then single intranasal LPS; for interalveolar septa thickness (result in words): compared with control mice without LPS; for alveolar lumen area (result in words): compared with control mice without LPS / H-form; for Partition thickness Me (25%; 75%): 6-week dietary course followed by single intranasal LPS, median
Procedure: FIGS. 3-6. Groups of female (f) and male (m) mice received a 6-week course of dietary (H) AA or a 6-week course of deuterated arachidonic acid (D6-ARA, 15 mg/day) followed by single intranasal administration of LPS.
COX and LOX inhibitors can be employed to down-regulate this process, with various efficacy. In contrast, the methods of the present disclosure rely on deuteration of the three oxidation prone sites within PUFA molecules, to substantially slow down the rate limiting step of oxidation (both enzymatic and non-enzymatic) via the isotope effect (IE). Made in high yield via a catalytic process, such D-PUFAs were tested in a lipopolysaccharide (LPS)-inflicted lung inflammation model in mice, a well-known lung inflammation model. (See Example 1.)
For example, the mouse LPS model has been used as a model for human acute lung injury (ALI), as the mouse lung parenchyma is damaged by the generation and release of proteases and reactive oxygen and nitrogen species produced by activated lung macrophages and transmigrated neutrophils in the interstitial and alveolar compartments. The end results are microvascular injury and diffuse alveolar damage with intrapulmonary hemorrhage, edema, and fibrin deposition (Johnson and Ward, J. Clin. Invest., (1974), 54:349-357; Flierl et al., Med. Hypothesis Res., (2006), 3:727,738), which are also features in patients with ALI and the acute respiratory distress syndrome (ARDS) (Kabir et al., Shock, (2002), 17:300-303; Ward, Am. J. Pathol., (1996), 149:1081-1086). This LPS model recapitulates aspects of the inflammatory cascades that are associated with pulmonary inflammation associated with lung disease in humans, and so is useful as a screen for compounds that may disrupt these cascades and attenuate or abort the disease process. As discussed herein, in some embodiments, the D-PUFAs of the present disclosure are administered to break the inflammatory cascade of specific cytokines and chemokines known to induce and amplify lung inflammation. Thus, for example, one can experimentally assess the efficacy of the D-PUFAs by examining whether the levels of inflammation associated markers are reduced. Two such markers, monocyte chemoattractant protein (MCP-1), and tumor necrosis factor alpha (TNF-a), are found to be associated with early and chronic infection and inflammation in humans and are mirrored in rodent models of airway inflammation including the mouse LPS pulmonary inflammation model.
LPS treatment promotes inflammation through various mechanisms including secretion of pro-inflammatory cytokines, eicosanoids and induction of ROS. Following induction by the intranasal administration of LPS, an acute lung inflammation quickly follows. […] Such a pronounced inflammatory infiltration of the interalveolar septa contributed to their destruction and more frequent formation of emphysema foci in this group. […] (See FIGS. 3-6.)
The degree of alveolar lumen area changes in both groups of animals depended on gender.

[2H]C([2H])(/C=C\CCCCC)/C=C\C([2H])([2H])/C=C\C([2H])([2H])/C=C\CCCC(=O)O [D-ara, 7,7,10,10,13,13-D6-arachidonic acid]
interalveolar septa thickness (result in words): consistent with controls | alveolar lumen area (result in words): consistent with controls | alveolar lumen area (result in words) (listed as D-form): decrease in alveoli lumens | degree of inflammatory lesion of the lungs (D-form compared to H-form, after 6-week course and LPS): lesser degree of inflammatory lesion | Partition thickness Me (25%; 75%) (females): 3.6 μm | Partition thickness Me (25%; 75%) (males): 5.55 μm | protective / therapeutic effect compared to other deuterated PUFAs (preliminary data (not shown)): better therapeutic effect; also recorded: best protective effect

CCCCC/C=C\C/C=C\C/C=C\C/C=C\CCCC(=O)O [H-ara, arachidonic acid, reference compound]
interalveolar septa thickness (result in words): significantly increased | alveolar lumen area (result in words): increase | interalveolar septa thickness (result in words) (listed as AA): increase | Partition thickness Me (25%; 75%) (females): 9.1 μm
